Laboratory results from patent US10111892B2, “Anti-cancer agent” (priority 2009, dated 2018).

Columns and labels:
[1] = test system: KB (oral squamous cell carcinoma); test: In vitro anti-tumor activity test (MTT), KB cells; assay type: cell-based; settings: 48 hours of culture
Procedure: (§1) [In Vitro Anti-Tumor Activity Test]
(§2) The phosphine transition metal complexes obtained in the examples and the comparative examples were subjected to an in vitro anti-tumor activity test. Specifically, KB (oral squamous cell carcinoma) and A375 (malignant melanoma) were used as cancer cells, and these cells were cultured in an incubator at 37° C. in a culture medium (RPMI-1640 or DEME) to which 10% inactivated fetal calf serum, L-glutamine, sodium pyruvate, 1×10^5 U/L of penicillin, and 100 mg/L of streptomycin had been supplemented. The cells were added such that each well contained 2×10^5 cells. Subsequently, the phosphine transition metal complex dissolved in dimethylsulfoxide was added to the medium and cultured for 48 hours. After the 48 hours of culture, a 5 mg/ml (3,[4,5-dimethylthiazol-2-yl]-2,5-diphenyltetrazolium bromide MTT) solution was added at 20 μl to each well, followed by culture for 3 to 4 hours in an incubator. Thereafter, 100 μl of a solution was further added to each well to completely solubilize the generated formazan crystals. The absorbance of the resultant at 492 nm was then measured, and IC50 was calculated.

[2] = test system: A375 (malignant melanoma); test: In vitro anti-tumor activity test (MTT), A375 cells; assay type: cell-based; settings: 48 hours of culture
Procedure: as §1, §2

KM rats = test: Toxicity test, single oral administration to rats; assay type: in vivo; settings: for Oral administration LD50: male and female KM rats, single oral dose in corn oil, observed to the fourteenth day
Procedure: Toxicity caused when the phosphine transition metal complexes obtained in the examples and the comparative examples were orally administered to rats was tested. Specifically, male and female KM rats were quarantined and raised while being acclimated, and then the selected 20 rats in total including 10 male rats and 10 female rats were formed into a group. The phosphine transition metal complexes obtained in the examples and comparative examples were orally administered once to rats which were fasted over night before the administration and whose weights were recorded, by using corn oil as a solvent and with a design such that a group showing sufficient fatal cases was included to determine LD50.

| Compound | In vitro anti-tumor activity IC50, KB [1] [µg/mL] | In vitro anti-tumor activity IC50, A375 [2] [µg/mL] | Oral administration LD50 (KM rats) [mg/kg] | toxicity (in words) (KM rats; oral administration to rats, compared with the other complexes) |
| --- | --- | --- | --- | --- |
| CP(c1nc2ccccc2nc1P(C)C(C)(C)C)C(C)(C)C.CP(c1nc2ccccc2nc1P(C)C(C)(C)C)C(C)(C)C.[Au+].[Cl-] (stereo not shown) [Comparative Example 1, Bis(2,3-bis(tert-butylmethylphosphino)quinoxaline)gold(I) chloride, reference compound] | 1.11 | 2.26 | 90.99 | relatively high |
| CP(c1nc2ccccc2nc1P(C)C(C)(C)C)C(C)(C)C.CP(c1nc2ccccc2nc1P(C)C(C)(C)C)C(C)(C)C.[Au+].[Cl-] (stereo not shown) [Example 1, bis(2,3-bis(tert-butylmethylphosphino)quinoxaline)gold(I) chloride] | 0.94 | 1.13 | 134.37 |  |
| CP(c1nc2ccccc2nc1P(C)C(C)(C)C)C(C)(C)C.CP(c1nc2ccccc2nc1P(C)C(C)(C)C)C(C)(C)C.[Au+].[Cl-] (stereo not shown) [Example 3, Bis(2,3-bis(tert-butylmethylphosphino)quinoxaline)gold(I) chloride] | 0.97 | 1.22 | 118.66 |  |
| Bis(2,3-bis(tert-butylmethylphosphino)quinoxaline) gold(I) chloride [Example 2] | 1.03 | 1.94 | 97.44 |  |
